This is an account of results in patent publication US9394297B2, “Amides as pim inhibitors” (AMGEN INC., priority 2012, dated 2016).

Experiment [1] concerns the target Pim-2 (Homo sapiens (Human), UniProt Q9P1W9). The experiment in a line: Pim enzyme assay (HTRF, 96-well), Pim-2. In kind it is biochemical. The settings on record: full length recombinant Pim-2, biotinylated-BAD (S112) peptide, 10-point curve, 45 min RT, read-out: Pim-2 IC50 IP. From the text: (§1) These cDNAs were used as templates in PCR reactions to produce full-length DNA clones of the PIMs. […] PCR products were digested with BclI and EcoRI for Pim-1 and BamHI and EcoRI for Pim-2 and ligated into a modified baculovirus transfer vector (pFastBac1) cleaved with BamHI and EcoRI. For bacterial expression, the same cleaved PCR products encoding Pim-1 or Pim-2 were ligated into a modified E. coli expression vector pET28(a) cleaved with BamHI and EcoRI. Amino-terminal hexahistidine tags followed by a thrombin cleavage site were previously added to the vectors using standard methods of molecular biology.
(§2) Recombinant baculoviruses expressing Pim-1 or Pim-2 were made using standard methods (Fastbac manual, Invitrogen, Carlsbad, Calif.). […] Cells were harvested by centrifugation and frozen at −80 C. For E. coli expression, cells carrying pET28-His6-Th-Pim-1 or pET28-His6-Th-Pim-2 were picked from a single colony and grown o/n in LB media. The o/n culture was used to inoculate a 2 liter flask with 500 mL media. This was grown o/n and used to inoculate 15-20 liters of Terrific Broth in a New Brunswick Scientific fermentor. The E. coli were grown at 37° C. to and OD600 >1.6. The temperature was dropped to 18° C. and o/n expression was induced with 0.5 mM IPTG. Cells were harvested by centrifugation and frozen at −80° C.
(§3) The slurry was centrifuged at 1,000×g for 5 min, the supernatant decanted, and the resin suspended in 40 mL of lysis wash buffer (lysis buffer at 0.75 M NaCl). This step was repeated 3× and the resin was transferred to a 2.5 cm glass column. Ten column volumes of wash buffer (0.05 M HEPES, pH 8.0, 0.1 M NaCl, 0.01 M 2-mercaptoethanol, 10%(w/v) glycerol) were applied to the resin followed by 10 column volumes of elution buffer (0.05 M HEPES, pH 8.0, 0.25 M NaCl, 0.01 M 2-mercaptoethanol, 10%(w/v) glycerol, 0.1 M imidazole). Fractions were analyzed by SDS-PAGE and those containing the protein of interest were pooled and concentrated. The concentrated protein was applied to an Amersham Superdex 75 (XK 26/60) column equilibrated in 0.025 M Tris-HCl, pH 7.5, 0.1 M NaCl, 0.01 M 2-mercaptoethanol, 10% (w/v) glycerol. […] Fractions containing the monomeric protein of interest were pooled, concentrated to ˜2 mg/mL, and stored at −80° C.
(§4) The phosphorylation of biotinylated-BAD (S112) peptide by full length recombinant Pim-1, Pim-2, or Pim-3 protein was detected with streptavidin:Allophycocyanin (APC) conjugate and a europium (Eu) labeled antibody directed against phosphorylated-BAD (S112). […] The fluorescence is directly proportional to the amount of phosphorylated BAD peptide present in the reaction. […] A reference compound was included on each assay plate in order to validate that plate; on one plate of every assay run, two additional reference compounds were included. The final buffer conditions were as follows: 60 mM Hepes, pH 7.0, 0.05% BSA, 2 mM DTT. Incubations were carried out at RT (22° C.) for 2 h for Pim-1, 1 hour and 30 min for Pim-3, and 45 min for Pim-2. The reaction was stopped by the addition of 3 mM EDTA, and fluorescence was measured by an HTRF® Rubystar microplate reader. For each plate, percent of control (POC) values were calculated for each well. Values for the IC50 IP were estimated using a standard 4-parameter logistic model.

The target in experiment [2] is T1, Pim-1 (Homo sapiens (Human), UniProt P11309). The experiment in a line: Pim enzyme assay (HTRF, 96-well), Pim-1. Format: biochemical. The conditions noted are these: full length recombinant Pim-1, biotinylated-BAD (S112) peptide, 10-point curve, 2 h RT, read-out: Pim-1 IC50 IP.
Description: as §1, §2, §3, §4
(In TR-FRET formats the signal depends on donor and acceptor labels being close together.)

Experiment [3] has as its system KMS-12-BM myeloma cell line. As to the kind of experiment: Pim KMS-12 cell assay (phospho-BAD S112 / total BAD, MSD).
In experiment [4] the target is T1, Pim-1. As to the kind of experiment: Pim-Mn enzyme assay (HTRF, 384-well), Pim-1. Format: biochemical. The conditions noted are these: Pim-1 enzyme 5 pM, ATP 1.5 μM, BAD (S112) 0.5 μM, HTRF, 22-point curve; read-out: Pim-1-Mn IC50 IP.
[5] abbreviates: Homo sapiens, KMS-12-BM, read-out: KMS-12-BM IC50 IP, KMS-12-BM cells, phospho-BAD (S112) vs total BAD, 1 hour 50 min with compound.

The structures appear in SMILES notation. Like-named read-outs stand apart in the source and are kept apart here.

T1 sequence (P11309 whole entry): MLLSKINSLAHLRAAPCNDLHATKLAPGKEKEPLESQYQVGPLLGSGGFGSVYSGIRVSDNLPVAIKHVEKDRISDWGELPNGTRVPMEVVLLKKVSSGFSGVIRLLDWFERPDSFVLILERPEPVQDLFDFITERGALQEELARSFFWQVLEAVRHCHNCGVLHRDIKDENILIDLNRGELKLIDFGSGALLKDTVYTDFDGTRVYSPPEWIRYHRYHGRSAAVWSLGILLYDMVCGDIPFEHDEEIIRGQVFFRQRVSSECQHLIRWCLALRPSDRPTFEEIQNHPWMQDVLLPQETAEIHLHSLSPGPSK
Chain of Pim-2 (Q9P1W9 whole entry): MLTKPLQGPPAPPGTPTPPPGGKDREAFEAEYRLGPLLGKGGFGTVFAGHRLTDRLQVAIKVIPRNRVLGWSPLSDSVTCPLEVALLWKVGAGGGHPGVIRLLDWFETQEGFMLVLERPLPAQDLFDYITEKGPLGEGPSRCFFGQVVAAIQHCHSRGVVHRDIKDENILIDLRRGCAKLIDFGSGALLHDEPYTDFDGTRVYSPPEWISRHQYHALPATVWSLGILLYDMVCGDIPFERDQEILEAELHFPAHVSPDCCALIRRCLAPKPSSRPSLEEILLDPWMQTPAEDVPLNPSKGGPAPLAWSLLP

On to `CC1CNC(=O)c2cc(-c3cccc4ccc(Cl)nc34)[nH]c21` (racemic) [Example 27, rac-2-(2-chloroquinolin-8-yl)-7-methyl-6,7-dihydro-1H-pyrrolo[3,2-c]pyridin-4(5H)-one], for which, in experiment [1], the IC50 worked out at 366 nM.

Regarding `CC1CNC(=O)c2cc(-c3cccc4ccc(Oc5ccccc5)nc34)[nH]c21` (racemic) [Example 28, rac-7-methyl-2-(2-phenoxyquinolin-8-yl)-6,7-dihydro-1H-pyrrolo[3,2-c]pyridin-4(5H)-one], the half-inhibitory concentration (IC50) in experiment [1] was 61 nM.

Turning to `CC(Oc1ccc2cccc(-c3cc4c([nH]3)CCNC4=O)c2n1)C(F)(F)F` (racemic) [Example 79, rac-2-(2-((1,1,1-trifluoropropan-2-yl)oxy)quinolin-8-yl)-6,7-dihydro-1H-pyrrolo[3,2-c]pyridin-4(5H)-one], in experiment [1], the IC50 was determined as 204 nM.

As to `O=C1NCC(Cc2ccccc2)c2[nH]c(-c3cccc4cccnc34)cc21` (racemic) [Example 119, rac-7-benzyl-2-(quinolin-8-yl)-6,7-dihydro-1H-pyrrolo[3,2-c]pyridin-4(5H)-one], the concentration for half-maximal inhibition (IC50) in experiment [2] is 39.4 nM; in experiment [1] it was 206 nM.

For the compound `Cc1nc2cccc(-c3cc4c([nH]3)CCNC4=O)c2nc1NC1CCC(=O)N(C)C1` (racemic) [Example 195, rac-2-(2-methyl-3-((1-methyl-6-oxopiperidin-3-yl)amino)quinoxalin-5-yl)-6,7-dihydro-1H-pyrrolo[3,2-c]pyridin-4(5H)-one 2,2,2-trifluoroacetate], the IC50 in experiment [1] was determined as 177 nM.

As for `CC1Cc2[nH]c(-c3cccc4ccc(Nc5ccccc5)nc34)cc2C(=O)N1` (racemic) [Example 237, rac-6-methyl-2-(2-(phenylamino)quinolin-8-yl)-6,7-dihydro-1H-pyrrolo[3,2-c]pyridin-4(5H)-one], the values for the half-inhibitory concentration (IC50) in experiment [1] and in experiment [3] (setting [5]) were 34.2 nM and 6580 nM, respectively.

Consider `CCC1CNC(=O)c2cc(-c3cccc4cc(C)c(Nc5ccccc5)nc34)[nH]c21` (racemic) [Example 250, rac-7-ethyl-2-(3-methyl-2-(phenylamino)quinolin-8-yl)-6,7-dihydro-1H-pyrrolo[3,2-c]pyridin-4(5H)-one], for which the IC50 in experiment [2] is 1 nM; in experiment [3] (setting [5]), 2820 nM.

Regarding `CC1Cc2[nH]c(-c3cccc4ccc(Nc5ccccc5)nc34)cc2C(=O)N1` (single isomer, unassigned) [Example 33, 6-methyl-2-(2-(phenylamino)quinolin-8-yl)-6,7-dihydro-1H-pyrrolo[3,2-c]pyridin-4(5H)-one], the values for the IC50 in experiment [1] and in experiment [3] (setting [5]) were 35.3 nM and 4100 nM, respectively.

Turning to `CC1Cc2[nH]c(-c3cccc4ccc(Nc5ccccc5)nc34)cc2C(=O)N1` (single isomer, unassigned) [Example 34, 6-methyl-2-(2-(phenylamino)quinolin-8-yl)-6,7-dihydro-1H-pyrrolo[3,2-c]pyridin-4(5H)-one], the IC50 in experiment [1] came out at 73.3 nM.

Turning to `CCC1CNC(=O)c2cc(-c3cccc4cc(C)c(Nc5ccccc5)nc34)[nH]c21` (single isomer, unassigned) [Example 117, 7-ethyl-2-(3-methyl-2-(phenylamino)quinolin-8-yl)-6,7-dihydro-1H-pyrrolo[3,2-c]pyridin-4(5H)-one], the IC50 in experiment [2] was found to be 0.6 nM; in experiment [3] (setting [5]), 3150 nM.

`CCC1CNC(=O)c2cc(-c3cccc4cc(C)c(Nc5ccccc5)nc34)[nH]c21` (single isomer, unassigned) [Example 118, 7-ethyl-2-(3-methyl-2-(phenylamino)quinolin-8-yl)-6,7-dihydro-1H-pyrrolo[3,2-c]pyridin-4(5H)-one]: the half-inhibitory concentration (IC50) in experiment [2] is 3.2 nM; in experiment [3] (read-out: KMS-12-BM IC50 IP, KMS-12-BM cells, phospho-BAD (S112) vs total BAD, 1 hour 50 min with compound) it was 5210 nM.

Consider `N[C@@H]1CCC[C@H](Nc2ccc3cccc(-c4cc5c([nH]4)CCNC5=O)c3n2)C1` (single isomer, unassigned) [Example 121, 2-(2-((cis-3-aminocyclohexyl)amino)quinolin-8-yl)-6,7-dihydro-1H-pyrrolo[3,2-c]pyridin-4(5H)-one], for which the IC50 stood at 0.6 nM in experiment [2] and 22.6 nM in experiment [1].

On to `O=C1NCCc2[nH]c(-c3cccc4ccc(Cl)nc34)cc21` [Example 1, 2-(2-chloroquinolin-8-yl)-6,7-dihydro-1H-pyrrolo[3,2-c]pyridin-4(5H)-one], for which the half-maximal inhibitory concentration (IC50) in experiment [2] worked out at 315 nM; in experiment [1] it was 636 nM.

For `O=C1NCCc2[nH]c(-c3cccc4ccc(Sc5ccccc5)nc34)cc21` [Example 5, 2-(2-(phenylthio)quinolin-8-yl)-6,7-dihydro-1H-pyrrolo[3,2-c]pyridin-4(5H)-one], the IC50 in experiment [1] was determined as 11.5 nM; in experiment [3] (setting [5]), 5700 nM.

For `O=c1[nH]ccc2[nH]c(-c3cccc4ccc(Nc5c(F)cccc5Cl)nc34)cc12` [Example 12, 2-(2-((2-chloro-6-fluorophenyl)amino)quinolin-8-yl)-1H-pyrrolo[3,2-c]pyridin-4(5H)-one], the IC50 in experiment [2] was found to be 2 nM; in experiment [1] it was 11 nM.

On to `O=C1NCCc2[nH]c(-c3cccc4ccc(Nc5cncnc5)nc34)cc21` [Example 13, 2-(2-(pyrimidin-5-ylamino)quinolin-8-yl)-6,7-dihydro-1H-pyrrolo[3,2-c]pyridin-4(5H)-one], for which the values for the IC50 in experiment [2] and in experiment [1] were 0.8 nM and 2.8 nM, respectively.

Regarding `O=c1[nH]cnc2[nH]c(-c3cccc4ccc(Oc5ccccc5)nc34)cc12` [Example 17, 6-(2-phenoxyquinolin-8-yl)-3H-pyrrolo[2,3-d]pyrimidin-4(7H)-one], the half-maximal inhibitory concentration (IC50) in experiment [2] was 34 nM; in experiment [1] it was 80.2 nM.

Turning to `O=C1NCCc2[nH]c(-c3cccc4ccc(Oc5cccc(O)c5)nc34)cc21` [Example 109, 2-(2-(3-hydroxyphenoxy)quinolin-8-yl)-6,7-dihydro-1H-pyrrolo[3,2-c]pyridin-4(5H)-one], the concentration for half-maximal inhibition (IC50) in experiment [1] was found to be 15.8 nM; in experiment [3] (setting [5]) it was 8810 nM.

On to `O=C1NCCc2[nH]c(-c3cccc4ccc(C5(c6ccccc6)CC5)nc34)cc21` [Example 114, 2-(2-(1-phenylcyclopropyl)quinolin-8-yl)-6,7-dihydro-1H-pyrrolo[3,2-c]pyridin-4(5H)-one], for which the 50% inhibitory concentration (IC50) in experiment [1] turned out to be 8.9 nM; in experiment [3] (setting [5]) it was 4180 nM.

For `Cc1nc2cccc(-c3cc4c([nH]3)CCNC4=O)c2nc1F` [Example 126, 2-(3-fluoro-2-methylquinoxalin-5-yl)-6,7-dihydro-1H-pyrrolo[3,2-c]pyridin-4(5H)-one], the IC50 in experiment [1] was greater than 1000 nM.

Take `CCCNc1nc2c(-c3cc4c([nH]3)CCNC4=O)cccc2nc1C` [Example 191, 2-(2-methyl-3-(propylamino)-5-quinoxalinyl)-1,5,6,7-tetrahydro-4H-pyrrolo[3,2-c]pyridin-4-one]: the values for the IC50 in experiment [1] and in experiment [3] (setting [5]) were 6.6 nM and 376 nM, respectively.

As to `Cc1nc2cccc(-c3cc4n(c3)CCNC4=O)c2nc1NC1CC1` [Example 233, 7-(3-(cyclopropylamino)-2-methylquinoxalin-5-yl)-3,4-dihydropyrrolo[1,2-a]pyrazin-1(2H)-one 2,2,2-trifluoroacetate], the figures for the IC50 in experiment [2], in experiment [4] and in experiment [3] (setting [5]) were 44.6 nM, 25 nM and 621 nM, respectively.

The IC50 is the concentration at which inhibition is half-maximal.
